This is an account of results in PubChem BioAssay (NCI).

Holding throughout (assay): growth of human tumour cells (NCI), 48 h
The subject of test [1] is HOP-62 NSCLC.
Test [2] relates to IGROV1 ovarian.
Test [3] concerns MDA-MB-231 breast.
The test system of test [4] is KM12 colon.
The subject of test [5] is NCI-H460 lung.
Test [6] concerns HL-60(TB) leukemia.
Test [7] relates to OVCAR-4 ovarian.
The test system of test [8] is UACC-257 melanoma.
Test [9] has as its system SNB-75 CNS.
Test [10] deals with MCF7 breast.

Several values for one entry are separate records, joined by “and”; a condition that tells them apart may be missing. Equal values may be shown once.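 In this assay, cells in 96-well plates receive the compound at five concentrations for 48 hours. Endpoints are linearly interpolated between the surrounding concentrations. GI50 = concentration required for 50% inhibition of growth. TGI is the concentration that stops growth completely.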 Some results are limits rather than exact numbers.

Turning to `N=C1N=C(N)S/C1=C\c1ccc2ncccc2c1`, the GI50 in test [1], in test [2], in test [3], in [4], in test [5] and in test [6] was more than 25 µM in each case. Further, the GI50 in test [7] is more than 25 µM; in test [8], more than 25 µM; in [9] it was more than 16.3 µM; in [10], more than 25 µM. Also, the TGI in [1], in test [2], in test [3], in [4], in test [5] and in test [6] was more than 25 µM each time. The TGI in test [7], in [8], in [9] and in [10] was more than 25 µM in each case.

With `O=C(O)c1nnsc1-c1csnn1`, the TGI in [1], in test [2], in test [3], in test [4], in [5] and in [6] was more than 100 µM each time. Besides, the TGI in [7], in test [8], in [9] and in [10] was more than 100 µM each time.

Take `CCCC(CCC)Oc1ccc(CCCC2=C(O)c3ccccc3C(=O)C2=O)cc1`: the GI50 in test [1] was 7.6 µM; in test [2], 4.93 µM; in [3] it was 12.3 µM; in test [4], 6.18 µM; in [5] it was 3.03 µM; in test [6], 2.68 µM. Besides, the GI50 was 8.14 µM in test [7], 7.07 µM in test [8], 11.3 µM in [9] and 4.32 µM in [10]. For the same compound, the TGI was 22.3 µM in test [1]; 18.5 µM in [2]; 28.9 µM in test [3]; 22.3 µM in [4]; 11.1 µM in test [5]; 6.27 µM in test [6]. In addition, the TGI in test [7] is 20.5 µM; in test [8] it was 43.1 µM; in test [9], 26.3 µM; in test [10] it was 15.2 µM.

Regarding `CN(C)CCCN1c2ccc(O)cc2Sc2ccc(Cl)cc21`, the TGI in test [1] was 29.5 µM; in test [2] it was 22 µM; in [3], 23.6 µM; in test [4], 23 µM; in [5], 14.5 µM; in [6] it was 30.8 µM. In addition, the TGI worked out at 25.5 µM in test [7], 4.14 µM in test [8], 21 µM in [9] and 26.5 µM in [10].

With `Cc1[nH]c(=O)nc(N/N=C/c2ccc(Cl)cc2)c1C(=O)Nc1ccc(Cl)cc1`, the TGI is 26 µM in [1]; more than 100 µM in test [2]; 26.2 µM in test [3]; more than 100 µM in test [4]; 39.7 µM in test [5]; more than 100 µM in [6]. The TGI in test [7] is 22.4 µM; in test [8], more than 94.6 µM; in [9] it was 14.6 µM; in [10], more than 100 µM.

For `COc1ccc2c(c1)C(=O)c1c-2n(CCCN=[N+]=[N-])c(=O)c2cc(N)ccc12`, the GI50 in [1] is more than 100 µM; in test [2] it was more than 100 µM; in test [3], more than 100 µM; in test [4] it was 53.6 µM; in [5] it was more than 100 µM; in test [6], more than 100 µM. Further, the GI50 in [7] was 17.8 µM; in test [8], more than 100 µM; in [10], more than 100 µM. For the same compound, the TGI in test [1], in test [2], in [3], in test [4], in [5] and in [6] was more than 100 µM in each case. For the same compound, the TGI in test [7], in test [8], in test [9] and in [10] was more than 100 µM each time.

With `CNC12C3C4C1C1C2C3C41C(=O)N[C@H](C(=O)N(C)[C@H](C[C@@H](OC(C)=O)c1nc(C(=O)N[C@@H](Cc2ccccc2)C[C@H](C)C(=O)OC)cs1)C(C)C)C1CC1` (stereo partly specified), the GI50 is 0.501 µM in test [1]; 0.172 µM in [2]; 0.402 µM in test [3]; 0.276 µM in test [4]; 0.517 µM in [5]; 0.0403 µM in test [6]. In addition, the GI50 in test [7] was 1.1 µM; in test [8], 2.99 µM; in test [9], 0.129 µM; in test [10] it was 0.0405 µM. Also, the TGI in test [1] was more than 15 µM; in [2], more than 13.4 µM; in [3] it was 3.33 µM; in test [4], 6.69 µM; in test [5] it was more than 15 µM; in test [6], 0.135 µM. Besides, the TGI in test [7] was more than 15 µM; in test [8] it was more than 15 µM; in test [9], 2.73 µM; in test [10], more than 15 µM.

For `Clc1ccc(N/N=C(\c2ccccc2)c2ccccn2)nc1`, the GI50 was 0.31 µM in test [1]; 0.139 µM in test [2]; 0.237 µM in test [3]; 0.39 µM in test [4]; 0.29 µM and 0.171 µM in test [5]; 0.0868 µM in test [6]. Also, the GI50 is 0.0201 µM in [7], 0.154 µM in [8], 0.614 µM in test [9] and 0.0302 µM in test [10]. Moreover, the TGI in [1] is > 33.7 µM and 12.3 µM; in test [3] it was > 65.8 µM and 48.4 µM; in test [4] it was > 41.4 µM and 5.81 µM; in test [5], > 39.9 µM and 13.6 µM; in test [7], > 100 µM and 56.2 µM; in test [8], 12 µM and 20.7 µM. This compound also gave a TGI in test [10] of more than 100 µM.

Turning to `COc1cc2c(c(OC)c1OC)C(=O)c1c-2n(CCCN=[N+]=[N-])c(=O)c2cc([N+](=O)[O-])ccc12`, the GI50 in test [1] is 30.7 µM; in test [2], 24.3 µM; in test [3], 35.8 µM; in [4], more than 100 µM; in test [5], 58.2 µM; in test [6] it was more than 100 µM. The GI50 in [7] was 46.8 µM; in test [8] it was more than 100 µM; in test [9], 19.4 µM; in test [10], 27.2 µM. Moreover, the TGI in test [1], in [2], in test [3], in [4], in test [5] and in [6] was more than 100 µM in each case. The TGI in test [7] is more than 100 µM; in [8] it was more than 100 µM; in test [9] it was 54.9 µM; in [10], more than 100 µM.
